From patent US20100268321A1, “DRUG-RELEASING GRAFT” (C R BARD, INC., priority 2005, published 2010)

Assay: Controlled release study: release of chlorhexidine acetate (ChAc) from drug-loaded ePTFE vascular cuff graft sections into PBS, UV absorbance
Assay type: physicochemical
Details: from ePTFE cuff section in PBS
Protocol: With respect to a vascular cuff graft, examples of which are shown in FIGS. 2 and 3, experimentation was conducted to study the release of a drug without a polymeric carrier from the cuff surface. The drug chosen for the experiment was chlorhexidine acetate (ChAc) and the release time was scheduled for nine weeks. The materials and methods of the experiment included creating a calibration curve, preparing the vascular cuff grafts, and measuring absorbance, each of which is described in detail below.
Initially, a calibration curve was created to determine the concentration of ChAc in phosphate buffered saline (PBS). […] The absorbance of each of these solutions was determined using the Shimadzu UV-1601 spectrophotometer. A curve of absorbance versus concentration was expected to be linear. […]
To prepare the vascular cuff grafts, the drug was embedded therein using the following procedure. […] The cuff section weights with the loaded drug were then determined and recorded. The cuff section weights without the loaded drug were determined after the study by washing the cuffs with ethanol and drying. […]
Absorbance was measured to determine the amount of drug released from the cuff sections. […] The PBS solutions were then analyzed using the Shimadzu UV 1600 spectrophotometer. […] The absorbance at ˜286 nm was recorded by automatic peak detection by the spectrophotometer. […]

levels of the drug in release medium (after nine weeks): still detectable
drug released (after one day): approximately 50%
SMILES: CC(=O)O.CC(=O)O.NC(=N\CCCCCC/N=C(N)/N=C(\N)Nc1ccc(Cl)cc1)/N=C(\N)Nc1ccc(Cl)cc1 [ChAc, chlorhexidine acetate]
